Earlier results, collected in US6103487A, “Method of treating cancer” (Merck & Co., Inc., priority 1998, dated 2000).

Tests used:
[1] = tested on: farnesyl-protein transferase; conditions: by inhibiting HMG-CoA reductase
[2] = tested on: Ras; conditions: inhibits the rate-limiting step in the isoprenoid biosynthetic pathway; positive control

SMILES	Indirect inhibition of farnesyl-protein transferase in vivo [1]	block of Ras processing in cells [2]
CC[C@H](C)C(=O)O[C@H]1CCC=C2C=C[C@H](C)[C@H](CC[C@@H]3C[C@@H](O)CC(=O)O3)[C@H]21 [compactin]	Indirect inhibition of farnesyl-protein transferase in vivo has been demonstrated	–
CC[C@H](C)C(=O)O[C@H]1C[C@@H](C)C=C2C=C[C@H](C)[C@H](CC[C@@H]3C[C@@H](O)CC(=O)O3)[C@H]21 [lovastatin]	Indirect inhibition of farnesyl-protein transferase in vivo has been demonstrated	blocks Ras processing in cells
